Series [1] deals with senescence-accelerated model mouse SAMP8. Put plainly: Morris water maze test. Particulars: SAMP8, oral 25 μg/kg/day; vs SAMP8; p<0.05. Type of series: in vivo. An excerpt: As a mouse for an in vivo test of the cyclic peptide derivative, senescence-accelerated model mouse SAMP8 which is used as a cognitive disorder model animal of initial Alzheimer's disease accompanied with aging was selected, and as a control, SAMR1 mouse with normal aging was selected.
19-Week old male mice of SAMR1 and SAMP8 were purchased from Japan SLC, Inc., and divided into 5 groups, i.e., mouse group with normal aging (SAMR1), senescence-accelerated model mouse group (SAMP8), {P8+donepezil hydrochloride 1250 μg/kg/day} group as a positive control, and {P8+cyclic peptide derivative 2.5 μg/kg/day} group and {P8+cyclic peptide derivative 25 μg/kg/day} group as a test group. […] After 10 days of an acclimation period, all mice were provided with standard meal (MEQ, Oriental Yeast Company) and body weight of the animal was recorded everyday during the entire test period. […]
(3) {P8+donepezil hydrochloride 1250 μg/kg/day} group: As a positive control, donepezil hydrochloride (Sanyo Chemical Laboratories CO., LTD.) was dissolved in MQ and prepared to have a concentration of 1250 μg/kg (bodyweight), and then orally administered to a SAMP8 for 5 weeks by using a gastric sonde. The concentration was accurately calculated based on the bodyweight which has been measured every day. […]

A further series in a line: Water solubility. Type of series: physicochemical.

On to `CCC1(C)Oc2cc(ccc2O)C(O)C(NC)C(=O)NC(C(C)C)C(=O)NC1C(=O)NC(CCC(=O)O)C(=O)O` (centres unmarked) [cyclic peptide derivative], for which, in series [1], the “spatial learning ability (time in zone (%) in quadrant 1)” value is listed as “significantly recovered”. Besides, in “Water solubility”, the water solubility entry is reported as “water soluble”.

The values are drawn from US10654890B2, “Cyclic peptide derivative, method for preparing same and composition thereof” (priority 2014, dated 2020).
